Source: US5312831A, “Urethanes and ureas that induce cytokine production” (American Cyanamid Company, priority 1993, dated 1994)

What was measured:
neutrophils [1] = experiment: Neutrophil recovery in cytoxan treated primates; format: in vivo, cynomolgous monkeys; conditions: for Absolute Neutrophil Count/cu. mm. of Blood: Cytoxan + Ex. 32 (50 μg/kg daily s.c.)
Procedure: Groups of 4 cynomolgous monkeys are treated on day 1 and day 0 with
cytoxan at 60 mg/kg. Beginning 24 hours after the second cytoxan dose, on
group is treated daily s.c. with 50 μg/kg of test compound and the
other with vehicle (water) only.
*p < 0.05 versus cytoxan only control by Student's t test.

IL-6 = experiment: Serum IL-6 production in mice after single s.c. injection (7TD1 bioassay); format: in vivo, mouse; conditions: serum 4 h post injection
Procedure: Description of Biological Assays Interleukin 6(IL-6) assay for structure function analysis--Test compounds are dissolved in water and administered subcutaneously in 0.2 ml to deliver a dose of 0.1-10 mg/kg. The less soluble compounds are first dissolved in 100% ethanol and then brought to the appropriate concentration in water. Four hours post injection, the mice are bled and the serum is retrieved. The IL-6 dependent cell line 7TDl is used to assay serial dilutions of sera for IL-6 content. 7TDl cells (1×10^4) are placed in microtiter wells and incubated at 37° C. for 72 hours with standard recombinant mouse IL-6 or with dilutions of serum to be tested. Over the last 6 hours, the cells are pulsed with ^3 H-Tdr (μci). Cells are then harvested and the degree of proliferation determined by the uptake of ^3 H-Tdr as measured by liquid scintillation spectrometry. The concentration of IL-6 in serum is calculated from standard curves utilizing recombinant IL-6 from R&D Systems Inc. and are reported in units of IL-6 activity as defined by the manufacturer.

CSF [2] = experiment: Serum colony stimulating factor (CSF) assay in mice; format: in vivo, mouse; conditions: serum 4 hours after injection
Procedure: Colony forming assays Granulocyte-Macrophage (CFU-GM)--Mice are treated with 150 mg/kg of 5-Fu and treatment with test compound begins 24 hrs. later. On consecutive days, mice are killed by cervical dislocation and the femurs removed under sterile conditions. Femurs are flushed with 1 ml of ice cold medium (Iscove's supplemented with 20% FCS, 1% penicillin-streptomycin, 1% glutamine and 5×10^-5 M 2-mercaptoethanol). Bone marrow cells (5×10^5) are then plated in 12×75 mm tissue culture plates in 3 ml of warm ararose (3%) in Iscove's medium with 100 Units/ml of recombinant mouse GM-CSF purchased from Genzyme (Boston, Mass.). Plates are incubated for 7 days at 37° C. in 5% CO2. After 7 days, colonies of 50 cells or greater are enumerated under a dissecting microscope.
Bone marrow cells are prepared as described above for the CFU-GM assay. The cells are then incubated in soft agar with an 0.3% final concentration of serum taken from mice 4 hours after injection with test compounds. After 7 days of incubation at 37° C., the number of colony forming (CFU) cells per 10^5 plated bone marrow cells is determined by counting colonies of more than 50 cells under a dissecting microscope. The data are reported as CFU/10^5 bone marrow cells.

neutrophils [3] = experiment: Neutrophil recovery in 5-FU treated mice; format: in vivo, mouse; conditions: mouse, in vivo
Procedure: (§1) Circulating Neutrophil Assay--Mice are treated with 5-FU (150 mg/kg) and beginning 24 hrs. later, treated daily with the test compound. Mice are bled daily by retroorbital puncture in heparinized capillary tubes. Circulating WBC counts are determined by Coulter counter. Blood smears are stained with Wright-Geimsa solution and the percentage circulating neutrophils determined by differential counting under a microscope.
(§2) 5-Fluorouracil (5-FU) Induced Neutropenia In Mice--Mice are treated ip with 150 mg/kg of the chemotherapy agent 5-FU which induces a severe loss of neutrophils in the peripheral blood 5-6 days later. Twenty-four hrs. after the dose, treatment with the test compounds is initiated. The effect of the test compounds on recovery of neutrophil progenitor cells in the bone marrow is determined by the CFU-GM assay. The recovery of circulating neutrophils is followed by differential staining of the peripheral blood.
*Data from 10 mice/group on day 7 post treatment with 150 mg/kg of 5FU.
Beginning 24 hrs. after 5FU dose, mice were treated daily with test
compound at concentrations indicated. Neutrophil count for normal mice (n
**Mice treated with 5FU and vehicle only.

neutrophils [4] = experiment: Oral dosing: neutrophil recovery in 5-FU treated mice; format: in vivo, mouse; conditions: for Neutrophils/cu. mm.: day 7 post 5FU, 0 dose 67 ± 22
Procedure: as §1, §2
Groups of 5 mice are treated with 150 mg/kg of 5-FU. One day later, daily oral dosing with test compounds begins and continues for 10 days. […]

neutrophils [5] = experiment: Neutrophil recovery in 5-FU treated mice; format: in vivo, mouse; conditions: day 8 post 5FU, 0 dose 144 ± 36
[6] = system: bone marrow progenitor cells; experiment: Delta assay: expansion of bone marrow progenitor cells in vitro, with c-kit ligand (KL); format: cell-based, mouse; conditions: KL alone, 7 day in vitro incubation; medium alone 0
Procedure: Delta Assay--Mice are treated with a single dose of 5-FU (150 mg/kg ip). Twenty-four hours later, bone marrow cells are removed and split into 2 aliquots. […] After 14 days, the number of colonies is determined (CFU-1). A second aliquot of cells is placed in liquid culture with single growth factors or drugs or combinations of each to assess the ability of these agents to expand the colony forming cell pool. After 7 days in liquid culture, these cells are harvested and plated in soft agar with IL-1 and GM-CSF as with the first aliquot. After 14 days the number of colonies in the second aliquot is determined (CFU-2). The ratio or delta is calculated as CFU-2/CFU-1 and this ratio is used to ascertain the ability of the growth factors and/or drugs used in the liquid phase to induce growth of the colony forming cells (CFU) or differentiation of pre-CFU to CFU.
Bone marrow cells from 5-FU treated mice are used to enrich for early progenitor cells. The cells are split into 2 aliquots as described in the methods section for the "delta assay." The fold increase is determined by measuring the effect of a 7 day in vitro incubation of the cells with tissue culture medium plus test compound and/or growth factor KL on colony forming dells (CFU). The number of CFUs are then compared with colony formation of the fresh bone marrow cells that were not incubated in vitro to determine the fold increase. Test compound is used in vitro at 0.5 μg/ml.

CSF [7] = conditions: literature; cited from earlier work
bone marrow = conditions: myelosuppression caused by chemotherapy or radiation; literature; cited from earlier work

For `CCCCCCC(=O)N[C@H](COC(=O)N[C@@H](CCC[C@@H](N)C(=O)O)C(=O)N[C@H](C)C(=O)O)C(=O)O` [Example 32, (R)-N-[(R)-6-carboxy-N^2-[[2-carboxy-2-[(1-oxoheptyl)amino]ethoxy]carbonyl]-L-lysyl]-D-Alanine], the “Absolute Neutrophil Count/cu. mm. of Blood” value (neutrophils [1]; day 0 after cytoxan, cytoxan only 3640 ± 1058) was 3554 ± 1194 /cu. mm. of Blood, the “Absolute Neutrophil Count/cu. mm. of Blood” value (neutrophils [1]; day 1 after cytoxan, cytoxan only 4900 ± 971) was 7849 ± 1592 /cu. mm. of Blood and the “Absolute Neutrophil Count/cu. mm. of Blood” value (neutrophils [1]; day 2 after cytoxan, cytoxan only 2689 ± 156) was 4679 ± 867 /cu. mm. of Blood. The “Absolute Neutrophil Count/cu. mm. of Blood” value (neutrophils [1]; day 3 after cytoxan, cytoxan only 1935 ± 126) was 1080 ± 264 /cu. mm. of Blood, the “Absolute Neutrophil Count/cu. mm. of Blood” value (neutrophils [1]; day 4 after cytoxan, cytoxan only 1442 ± 344) was 370 ± 171 /cu. mm. of Blood and the “Absolute Neutrophil Count/cu. mm. of Blood” value (neutrophils [1]; day 5 after cytoxan, cytoxan only 856 ± 295) was 455 ± 208 /cu. mm. of Blood. The “Absolute Neutrophil Count/cu. mm. of Blood” value (neutrophils [1]; day 6 after cytoxan, cytoxan only 1009 ± 292) was 518 ± 218 /cu. mm. of Blood, the “Absolute Neutrophil Count/cu. mm. of Blood” value (neutrophils [1]; day 7 after cytoxan, cytoxan only 852 ± 301) was 1304 ± 1046 /cu. mm. of Blood and the “Absolute Neutrophil Count/cu. mm. of Blood” value (neutrophils [1]; day 8 after cytoxan, cytoxan only 542 ± 233) was 1596 ± 1000 /cu. mm. of Blood. The “Absolute Neutrophil Count/cu. mm. of Blood” value (neutrophils [1]; day 9 after cytoxan, *p < 0.05 versus cytoxan only 441 ± 194) was 2041 ± 423 /cu. mm. of Blood, the “Absolute Neutrophil Count/cu. mm. of Blood” value (neutrophils [1]; day 10 after cytoxan, cytoxan only 1244 ± 509) was 3506 ± 1130 /cu. mm. of Blood and the “Absolute Neutrophil Count/cu. mm. of Blood” value (neutrophils [1]; day 11 after cytoxan, cytoxan only 2053 ± 1002) was 4576 ± 673 /cu. mm. of Blood. For the same compound, the “Absolute Neutrophil Count/cu. mm. of Blood” value (neutrophils [1]; day 12 after cytoxan, cytoxan only 1885 ± 678) was 3761 ± 1394 /cu. mm. of Blood, the “Absolute Neutrophil Count/cu. mm. of Blood” value (neutrophils [1]; day 13 after cytoxan, cytoxan only 3502 ± 2297) was 3751 ± 1278 /cu. mm. of Blood and the “Absolute Neutrophil Count/cu. mm. of Blood” value (neutrophils [1]; day 14 after cytoxan, cytoxan only 3816 ± 1674) was 3106 ± 520 /cu. mm. of Blood. For the same compound, the “recovery of neutrophils in cytoxan treated primates (in words)” value (neutrophils [1]; monkey, in vivo) was “accelerates the recovery of neutrophils”, the “recovery to control levels” value (neutrophils [1]; versus a day 10 recovery for the cytoxan only group) was no more than 7 days and the IL-6 (IL-6; 0.1 mg/kg s.c.) was 1340 ± 134 U/ml. The IL-6 (IL-6; 1.0 mg/kg s.c.) was 1797 ± 284 U/ml, the “CSF production, CFU/100,000 Bone Marrow Cells” value (CSF [2]; 0.1 mg/kg) was 154 ± 5 CFU/100,000 Bone Marrow Cells and the “CSF production, CFU/100,000 Bone Marrow Cells” value (CSF [2]; 1.0 mg/kg) was 137 ± 15 CFU/100,000 Bone Marrow Cells. For the same compound, the “neutrophil recovery in 5-FU treated mice (in words)” value (neutrophils [3]) was “induce neutrophil recovery in 5-FU treated mice”, the Neutrophils/cu. mm. (neutrophils [4]; 1 mg/kg daily oral) was 547 ± 232 /cu. mm and the Neutrophils/cu. mm. (neutrophils [4]; 10 mg/kg daily oral) was 1844 ± 814 /cu. mm. The “neutrophil recovery in 5-FU treated mice when given orally (in words)” value (neutrophils [4]; oral) was “active in accelerating neutrophil recovery”, the Neutrophils/cu. mm. (neutrophils [5]; 100 μg/kg daily) was 982 ± 150 /cu. mm and the Neutrophils/cu. mm. (neutrophils [5]; 1000 μg/kg daily) was 1892 ± 293 /cu. mm.
In the case of “KL: hemopoietic growth factor c-kit ligand (KL)”, the “Fold Increase in CFU” value [6] is reported as 66 fold.
In the case of muroctasin, the “formation of CSF (in words)” value (CSF [7]) is given as “appear to induce the formation of CSF” and the “bone marrow restoration after myelosuppression (in words)” value (bone marrow) is given as “can aid in bone marrow restoration”.
For pimelautide, the “formation of CSF (in words)” value (CSF [7]) is given as “appear to induce the formation of CSF” and the “bone marrow restoration after myelosuppression (in words)” value (bone marrow) is given as “can aid in bone marrow restoration”.
